# pEC50: −log10 of the molar value.
# Target: T1, STAT6 (Homo sapiens, UniProt P42226)
# T1 construct: stably transfected HaCaT keratinocyte cell line, which expresses NanoLuc luciferase reporter gene under the transcriptional control of the STAT6 responsive promoter; endogenous in cells; host or cells: HaCaT keratinocyte reporter cell line (stably transfected with a NanoLuc reporter)
# T1 sequence (P42226 1-847): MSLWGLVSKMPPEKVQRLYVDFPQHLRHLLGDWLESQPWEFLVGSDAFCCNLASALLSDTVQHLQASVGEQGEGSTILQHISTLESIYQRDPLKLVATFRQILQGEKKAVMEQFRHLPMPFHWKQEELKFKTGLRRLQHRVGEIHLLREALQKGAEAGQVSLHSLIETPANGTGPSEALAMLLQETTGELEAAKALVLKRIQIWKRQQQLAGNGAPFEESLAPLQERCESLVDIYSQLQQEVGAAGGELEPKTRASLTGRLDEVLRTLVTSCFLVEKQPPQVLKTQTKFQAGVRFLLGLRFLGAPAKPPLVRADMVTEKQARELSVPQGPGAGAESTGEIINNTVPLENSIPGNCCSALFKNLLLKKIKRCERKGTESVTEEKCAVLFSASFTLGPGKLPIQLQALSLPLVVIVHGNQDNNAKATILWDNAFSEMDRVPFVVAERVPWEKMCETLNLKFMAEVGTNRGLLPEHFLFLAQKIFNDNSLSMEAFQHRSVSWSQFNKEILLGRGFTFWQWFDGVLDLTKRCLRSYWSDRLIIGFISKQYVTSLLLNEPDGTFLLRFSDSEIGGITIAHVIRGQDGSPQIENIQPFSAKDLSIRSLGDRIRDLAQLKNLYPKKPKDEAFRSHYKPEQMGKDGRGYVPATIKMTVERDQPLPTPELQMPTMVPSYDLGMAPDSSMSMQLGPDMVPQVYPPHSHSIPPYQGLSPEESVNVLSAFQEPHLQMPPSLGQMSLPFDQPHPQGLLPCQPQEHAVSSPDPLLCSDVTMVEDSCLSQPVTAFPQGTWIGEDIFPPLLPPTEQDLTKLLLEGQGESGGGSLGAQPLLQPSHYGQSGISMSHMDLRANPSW
# Assay: STAT6 Reporter Luciferase Assay (IL-13 stimulated HaCaT keratinocyte NanoLuc reporter cells)
# Assay type: cell-based
# Settings: IL-13 stimulated HaCaT STAT6 NanoLuc reporter cells; read-out: Reporter EC50
# In short: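 Cells were plated overnight, washed, exposed to compound for two hours, stimulated with IL-13 (0.12 nM final) for four hours at 37 °C, and then lysed with Nano-Glo substrate for 15 min before luminescence reading.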
row,pEC50,SMILES
1,5.98,"CC(C)n1nc(C(=O)NCc2ccc(NC(=O)N(C)C)cc2)c2c1CCN(c1ccc(C(=O)N3CCC4(CCC(=O)N4)CC3)cn1)C2 [Example 329, N-(4-(3,3-dimethylureido)benzyl)-1-isopropyl-5-(5-(2-oxo-1,8-diazaspiro[4.5]decane-8-carbonyl)pyridin-2-yl)-4,5,6,7-tetrahydro-1H-pyrazolo[4,3-c]pyridine-3-carboxamide]"
2,5.70,"CC(=O)NC1(C)CN(C(=O)c2ccc(N3CCc4c(c(C(=O)NCc5ccc(NC(=O)N(C)C)cc5)nn4C(C)C)C3)nc2)C1 [Example 330, 5-(5-(3-acetamido-3-methylazetidine-1-carbonyl)pyridin-2-yl)-N-(4-(3,3-dimethylureido)benzyl)-1-isopropyl-4,5,6,7-tetrahydro-1H-pyrazolo[4,3-c]pyridine-3-carboxamide]"
3,6.80,"CC(C)n1nc(C(=O)NCc2ccc(NC(=O)N(C)C)cc2)c2c1CCN(c1ccc(C(=O)N(C)CCO)cn1)C2 [Example 332, N-(4-(3,3-dimethylureido)benzyl)-5-(5-((2-hydroxyethyl)(methyl)carbamoyl)pyridin-2-yl)-1-isopropyl-4,5,6,7-tetrahydro-1H-pyrazolo[4,3-c]pyridine-3-carboxamide]"
4,8.15,"CC(C)n1nc(C(=O)NCc2ccc(NC(=O)N(C)C)cc2)c2c1CCN(c1ccc(C(=O)N3Cc4cnn(C)c4C3)cn1)C2 [Example 363, N-(4-(3,3-dimethylureido)benzyl)-1-isopropyl-5-(5-(1-methyl-1,4,5,6-tetrahydropyrrolo[3,4-c]pyrazole-5-carbonyl)pyridin-2-yl)-4,5,6,7-tetrahydro-1H-pyrazolo[4,3-c]pyridine-3-carboxamide]"
5,7.70,"CC(C)n1nc(C(=O)NCc2ccc(NC(=O)N(C)C)cc2)c2c1CCN(c1ccc(C(=O)N3CCc4nn(C)cc4C3)cn1)C2 [Example 364, N-(4-(3,3-dimethylureido)benzyl)-1-isopropyl-5-(5-(2-methyl-4,5,6,7-tetrahydro-2H-pyrazolo[4,3-c]pyridine-5-carbonyl)pyridin-2-yl)-4,5,6,7-tetrahydro-1H-pyrazolo[4,3-c]pyridine-3-carboxamide]"
6,8.22,"Cc1nc2c(s1)CN(C(=O)c1ccc(N3CCc4c(c(C(=O)NCc5ccc(NC(=O)N(C)C)cc5)nn4C(C)C)C3)nc1)CC2 [Example 365, N-(4-(3,3-dimethylureido)benzyl)-1-isopropyl-5-(5-(2-methyl-4,5,6,7-tetrahydrothiazolo[5,4-c]pyridine-5-carbonyl)pyridin-2-yl)-4,5,6,7-tetrahydro-1H-pyrazolo[4,3-c]pyridine-3-carboxamide]"
7,7.54,"CC(C)n1nc(C(=O)NCc2ccc(NC(=O)N(C)C)cc2)c2c1CCN(c1ccc(C(=O)N3CCc4nccnc4C3)cn1)C2 [Example 366, N-(4-(3,3-dimethylureido)benzyl)-1-isopropyl-5-(5-(5,6,7,8-tetrahydropyrido[3,4-b]pyrazine-6-carbonyl)pyridin-2-yl)-4,5,6,7-tetrahydro-1H-pyrazolo[4,3-c]pyridine-3-carboxamide]"
8,7.14,"CC(C)n1nc(C(=O)NCc2ccc(NC(=O)N(C)C)cc2)c2c1CCN(c1ccc(C(=O)N3CCn4ncnc4C3)cn1)C2 [Example 367, N-(4-(3,3-dimethylureido)benzyl)-1-isopropyl-5-(5-(5,6,7,8-tetrahydro-[1,2,4]triazolo[1,5-a]pyrazine-7-carbonyl)pyridin-2-yl)-4,5,6,7-tetrahydro-1H-pyrazolo[4,3-c]pyridine-3-carboxamide]"
9,8.30,"Cc1cc(C)c2c(n1)CN(C(=O)c1ccc(N3CCc4c(c(C(=O)NCc5ccc(NC(=O)N(C)C)cc5)nn4C(C)C)C3)nc1)C2 [Example 368, 5-(5-(2,4-dimethyl-6,7-dihydro-5H-pyrrolo[3,4-b]pyridine-6-carbonyl)pyridin-2-yl)-N-(4-(3,3-dimethylureido)benzyl)-1-isopropyl-4,5,6,7-tetrahydro-1H-pyrazolo[4,3-c]pyridine-3-carboxamide]"
10,7.42,"Cc1nn(C)c2c1CN(C(=O)c1ccc(N3CCc4c(c(C(=O)NCc5ccc(NC(=O)N(C)C)cc5)nn4C(C)C)C3)nc1)CC2 [Example 369, 5-(5-(1,3-dimethyl-4,5,6,7-tetrahydro-1H-pyrazolo[4,3-c]pyridine-5-carbonyl)pyridin-2-yl)-N-(4-(3,3-dimethylureido)benzyl)-1-isopropyl-4,5,6,7-tetrahydro-1H-pyrazolo[4,3-c]pyridine-3-carboxamide]"
11,7.96,"CC(C)n1nc(C(=O)NCc2ccc(NC(=O)N(C)C)cc2)c2c1CCN(c1ccc(C(=O)N3Cc4cnc(C5CC5)nc4C3)cn1)C2 [Example 370, 5-(5-(2-cyclopropyl-6,7-dihydro-5H-pyrrolo[3,4-d]pyrimidine-6-carbonyl)pyridin-2-yl)-N-(4-(3,3-dimethylureido)benzyl)-1-isopropyl-4,5,6,7-tetrahydro-1H-pyrazolo[4,3-c]pyridine-3-carboxamide]"
12,7.30,"CC(C)n1nc(C(=O)NCc2ccc(NC(=O)N(C)C)cc2)c2c1CCN(c1ccc(C(=O)N3CCc4cnn(C)c4C3)cn1)C2 [Example 371, N-(4-(3,3-dimethylureido)benzyl)-1-isopropyl-5-(5-(1-methyl-4,5,6,7-tetrahydro-1H-pyrazolo[3,4-c]pyridine-6-carbonyl)pyridin-2-yl)-4,5,6,7-tetrahydro-1H-pyrazolo[4,3-c]pyridine-3-carboxamide]"
13,7.23,"CC(C)n1nc(C(=O)NCc2ccc(NC(=O)N(C)C)cc2)c2c1CCN(c1ccc(C(=O)N3CCn4ccnc4C3)cn1)C2 [Example 372, N-(4-(3,3-dimethylureido)benzyl)-1-isopropyl-5-(5-(5,6,7,8-tetrahydroimidazo[1,2-a]pyrazine-7-carbonyl)pyridin-2-yl)-4,5,6,7-tetrahydro-1H-pyrazolo[4,3-c]pyridine-3-carboxamide]"
14,6.27,"Cc1nnc2n1CCN(C(=O)c1ccc(N3CCc4c(c(C(=O)NCc5ccc(NC(=O)N(C)C)cc5)nn4C(C)C)C3)nc1)C2 [Example 373, N-(4-(3,3-dimethylureido)benzyl)-1-isopropyl-5-(5-(3-methyl-5,6,7,8-tetrahydro-[1,2,4]triazolo[4,3-a]pyrazine-7-carbonyl)pyridin-2-yl)-4,5,6,7-tetrahydro-1H-pyrazolo[4,3-c]pyridine-3-carboxamide]"
15,7.85,"CC(C)n1nc(C(=O)NCc2ccc(NC(=O)N(C)C)cc2)c2c1CCN(c1ccc(C(=O)N3CCc4ncsc4C3)cn1)C2 [Example 374, N-(4-(3,3-dimethylureido)benzyl)-1-isopropyl-5-(5-(4,5,6,7-tetrahydrothiazolo[5,4-c]pyridine-5-carbonyl)pyridin-2-yl)-4,5,6,7-tetrahydro-1H-pyrazolo[4,3-c]pyridine-3-carboxamide]"
16,8.00,"CC(C)n1nc(C(=O)NCc2ccc(NC(=O)N(C)C)cc2)c2c1CCN(c1ccc(C(=O)N3CCc4ncccc4C3)cn1)C2 [Example 376, N-(4-(3,3-dimethylureido)benzyl)-1-isopropyl-5-(5-(5,6,7,8-tetrahydro-1,6-naphthyridine-6-carbonyl)pyridin-2-yl)-4,5,6,7-tetrahydro-1H-pyrazolo[4,3-c]pyridine-3-carboxamide]"
17,7.68,"Cc1cc2n(n1)CCN(C(=O)c1ccc(N3CCc4c(c(C(=O)NCc5ccc(NC(=O)N(C)C)cc5)nn4C(C)C)C3)nc1)C2 [Example 377, N-(4-(3,3-dimethylureido)benzyl)-1-isopropyl-5-(5-(2-methyl-4,5,6,7-tetrahydropyrazolo[1,5-a]pyrazine-5-carbonyl)pyridin-2-yl)-4,5,6,7-tetrahydro-1H-pyrazolo[4,3-c]pyridine-3-carboxamide]"
18,7.82,"CC(C)n1nc(C(=O)NCc2ccc(NC(=O)N(C)C)cc2)c2c1CCN(c1ccc(C(=O)N3Cc4ccncc4C3)cn1)C2 [Example 378, 5-(5-(2,3-dihydro-1H-pyrrolo[3,4-c]pyridine-2-carbonyl)pyridin-2-yl)-N-(4-(3,3-dimethylureido)benzyl)-1-isopropyl-4,5,6,7-tetrahydro-1H-pyrazolo[4,3-c]pyridine-3-carboxamide]"
19,7.15,"CC(C)n1nc(C(=O)NCc2ccc(NC(=O)N(C)C)cc2)c2c1CCN(c1ccc(C(=O)N3CCc4ncncc4C3)cn1)C2 [Example 379, N-(4-(3,3-dimethylureido)benzyl)-1-isopropyl-5-(5-(5,6,7,8-tetrahydropyrido[4,3-d]pyrimidine-6-carbonyl)pyridin-2-yl)-4,5,6,7-tetrahydro-1H-pyrazolo[4,3-c]pyridine-3-carboxamide]"

# From patent US20250320213A1, “Nitrogen-Containing Heterocyclic Compounds” (Pfizer Inc., priority 2024, published 2025)
